In data set [1] the test system is OATP. Kind of data set: Identification of transporters using inhibitors in hCMEC/D3 cells: OATP. The data set is classed as cell-based, human. Conditions: substrate 10 μmol/L, inhibitor 100 μmol/L. As for the experimental part:
The toxicity of all compounds, including inhibitors and substrates, toward hCMEC/D3 cells, was assessed using the 3-(4,5-Dimethylthiazol-2-yl)-2,5-diphenyltetrazolium bromide (MTT) reduction assay as described previously. To assess the effects of pyrilamine-sensitive proton-coupled organic cation (H^+/OC) antiporter, organic anion transporter (OAT), organic anion-transporting polypeptides (OATPs), organic cation transporter (OCT), and novel organic cation–carnitine transporter (OCTN) inhibitors on the uptake process, IMM-H004 or IMM-H004G (10 µmol/L) combined with the inhibitors were added to the medium after preincubating the cells with the inhibitors for 30 min. For evaluating the impact of the multidrug and toxin extrusion transporter (MATE), P-glycoprotein (P-gp), multidrug resistance protein (MRP), and breast cancer resistance protein (BCRP) on the uptake, IMM-H004 or IMM-H004G (10 µmol/L) was preincubated with the cells for 2 h before the addition of the inhibitors. After removing the supernatant, the cells were washed twice with prewarmed HBSS and incubated with fresh HBSS for 20 min. At the end of incubation, the supernatants were collected. […] The protein content of the lysed cells was determined using a bicinchoninic acid (BCA) assay kit (Beyotime Inc., Shanghai, China). The results were expressed as a percentage of the vehicle control.

Data set [2] addresses T1, OATP1B3 (Homo sapiens, UniProt Q9NPD5).
T1 construct: expressed in transfected cells; host or cells: MDCKII
T1 sequence (Q9NPD5 1-702): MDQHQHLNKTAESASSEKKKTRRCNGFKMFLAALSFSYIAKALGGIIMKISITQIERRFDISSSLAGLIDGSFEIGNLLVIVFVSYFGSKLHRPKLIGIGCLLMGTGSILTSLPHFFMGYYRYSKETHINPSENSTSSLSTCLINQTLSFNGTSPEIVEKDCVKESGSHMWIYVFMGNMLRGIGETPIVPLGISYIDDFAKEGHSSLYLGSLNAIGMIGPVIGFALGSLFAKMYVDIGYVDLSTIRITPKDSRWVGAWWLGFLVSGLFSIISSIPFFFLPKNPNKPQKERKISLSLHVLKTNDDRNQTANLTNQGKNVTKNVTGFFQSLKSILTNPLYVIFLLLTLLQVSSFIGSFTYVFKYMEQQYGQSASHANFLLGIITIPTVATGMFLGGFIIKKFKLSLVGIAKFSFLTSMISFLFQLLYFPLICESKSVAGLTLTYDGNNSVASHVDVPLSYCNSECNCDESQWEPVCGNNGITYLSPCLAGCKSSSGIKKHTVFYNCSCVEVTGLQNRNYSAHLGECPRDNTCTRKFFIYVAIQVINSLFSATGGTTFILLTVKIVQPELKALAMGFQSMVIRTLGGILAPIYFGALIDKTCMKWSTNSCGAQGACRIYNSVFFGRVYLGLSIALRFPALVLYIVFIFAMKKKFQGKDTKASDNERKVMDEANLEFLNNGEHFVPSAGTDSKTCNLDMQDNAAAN
The data set can be described thus: Uptake in MDCKⅡ-OATP1B3 cells. Conditions: MDCKⅡ-OATP1B3, 30, 60 µmol/L, 20 or 40 min. It counts as cell-based. As for the experimental part: Figure S4 Uptake of IMM-H004G in MDCKⅡ-OATP1B1 and MDCKⅡ-OATP1B3 cells. (a)
RSV (rosuvastatin, 30 µmol/L) is used as a positive group in MDCKⅡ-OATP1B1 cells. (b)
E17βG (estradiol-17β-glucuronide, 5 µmol/L) is used as a positive group in
MDCKⅡ-OATP1B3 cells. (c) IMM-H004G (30, 60 µmol/L) was incubated with
MDCKⅡ-OATP1B1 and MDCKⅡ-OATP1B3 cells for 20 or 40 min. The OATP
pan-inhibitor CsA (cyclosporin A) is 10 µmol/L. n=3 for positive substrates, and n=2 for
IMM-H004G. ***p < 0.001, **p < 0.01, *p < 0.05 vs. control group. ns, not significant.
(1 picture or pasted object on this page, not shown here)

Data set [3] deals with P-gp. The data set can be described thus: Bidirectional transport in MDCKⅡ-MDR1 cell monolayers. The data set is classed as in vitro ADME. Conditions: dog. The procedure:
To further validate the effect of P-gp on the transport of IMM-H004G or IMM-H004, MDCKⅡ-MDR1 cells were seeded onto polycarbonate membrane transwell inserts in 24-well plates and used for transport studies after 5 days or when the effective transepithelial electric resistance (TEER) values exceeded 300 Ω·cm^2. The monolayers were initially rinsed twice with HBSS. Subsequently, IMM-H004G or IMM-H004 (10 µmol/L) was added to either the apical or basolateral side of the monolayer. Aliquots of 50 µL were collected from the opposite compartment at various time points, covering a maximum duration of 120 min. Digoxin (5 μmol/L) was used as a positive substrate, while PSC833 (5 µmol/L) was used as an inhibitor in MDCKⅡ-MDR1 cells. The apparent permeability value (Papp) was calculated using the following equation:(2) Papp=dQ/dt/AC0 where dQ/dt is the slope of the cumulative transport amount over time during the study period. A is the base area of the insert, and C0 is the initial addition concentration.
The efflux ratio (ER) was calculated as follows:ER = Papp(B−A)/Papp(A−B) (3)

Read-outs that look alike come from different tables or passages of the source.

Take `COc1cc(OC2OC(C(=O)O)C(O)C(O)C2O)cc2oc(=O)c(N3CCN(C)CC3)c(C)c12` (stereo not shown) [IMM-H004G]: the “reduction of uptake by OATP inhibitor rifamycin” value in data set [1] was 39.6%. The “uptake increase in OATP1B3-overexpressing cells compared to control cells” value in data set [2] is on record as “did not exceed a tenfold increase”.

`COc1cc(O)cc2oc(=O)c(N3CCN(C)CC3)c(C)c12` [IMM-H004]: the efflux ratio at 120 min in data set [3] (MDCK-MDR1, with PSC833 5 µmol/L, MDCKⅡ-MDR1, PSC833 5 µmol/L, read-out: efflux ratio (ER) in the presence of PSC833) amounted to 1.1; in data set [3] (MDCK-MDR1, MDCKⅡ-MDR1, no inhibitor, IMM-H004 10 µmol/L, digoxin 5 μmol/L, read-out: efflux ratio (ER)), 2.96.

Source of the values: article PMC10975012, “The Active Glucuronide Metabolite of the Brain Protectant IMM-H004 with Poor Blood–Brain Barrier Permeability Demonstrates a High Partition in the Rat Brain via Multiple Mechanisms” (Pharmaceutics, 2024).
